# Measured values: US20100099130A1, “METHODS AND DEVICES FOR MONITORING PLATELET FUNCTION” (PLACOR INC., priority 2006, published 2010)
# What was measured:
# [1] = tested on: platelet adhesion; conditions: long-term aspirin therapy; cited from earlier work
# [2] = tested on: platelets; test: Platelet Reactivity Test (PRT), time to platelet mass formation in whole blood of volunteers; format: in vivo, human; conditions: after taking aspirin, most volunteers; without aspirin the test concludes in less than 100 seconds
# Experimental: The PRT test is used to activate platelet gel formations using a small (20 microliter) whole blood sample to help identify proper platelet function in the absence of platelet drug therapy and to identify inhibited platelet function in the presence of platelet drug therapy. The test is performed by running a small quantity of blood through a channel restriction that will induce the formation of platelet gels and trap them in a focused area similar to the way platelets are activated and focused in the body. Cartridge 150 has capillary tube inlet 160 that can receive a capillary tube filled with blood. A capillary tube filled with blood can be attached to capillary tube port 200. Conduit 230 leads from capillary tube port 200 to junction 270 and junction 270 splits into conduit 250 and passageways 240, 260. Conduit 250 and passageways 240, 260 include overflow wells 280. Conduit 250 and passageways 240, 260 lead to ports 180, 170, 190, respectively. […] In a preferred embodiment, the cartridge 150 has a bar code that is read by the instrument 400. […] The instrument 400 will report the average of the platelet reactivity times determined from the blood in passageways 240 and 260. […] If the two platelet reactivity times determined from the blood in passageways 240 and 260 are greatly different, the instrument will indicate that the test is invalid. […]
smiles,measurement,setting,value
CC(=O)Oc1ccccc1C(=O)O [aspirin],individuals who do not achieve inhibition of platelet adhesion,[1],up to 30%
same,PRT (platelet reactivity time),[2],greater than 150 seconds
